Reference: patent US8372840B2, “Potassium channel blockers” (Xention Limited, priority 2008, dated 2013)

How the values were obtained:
hKv1.5 = hKv1.5 (Homo sapiens, UniProt P22460); assay: Kv1.5 Autopatch Electrophysiology (whole cell patch-clamp); assay type: cell-based; settings: compound 1 μM, step to 0 mV for 1000 ms, total charge, room temperature (22-24° C.); for inhibition at 1 µM: read-out: hKv1.5 % inh.
Procedure: The external bathing solution contained (in mM): 150 NaCl, 10 KCl, […], 3 MgCl2, 1 CaCl2, 10 HEPES, pH 7.4. Patch pipettes were filled with an electrode solution of composition (in mM): 160 KCl, 0.5 MgCl2, 10 HEPES, 1 EGTA, pH 7.4 with KOH.
Compounds were dissolved in DMSO (100%) and made up in the external bather at a concentration of 1 μM. All experiments were conducted at room temperature (22-24° C.).
A cell suspension (10 ml), with a density of 100,000 cells/ml, was aliquoted into a 15 ml centrifuge tube and transferred to an incubator (37° C., 5% CO2) for approximately one hour before use. Following 60 min incubation, a tube was taken and centrifuged at 1000 rpm for 4 mins at room temperature. 9.5 ml supernatant was thence discarded, leaving a cell pellet at the bottom of the tube. The pellet was then resuspended using 100 μl of cold (4° C.), filtered (0.22 μm), 0.2% BSA/bather solution (0.02 g BSA/10 ml bather). The bottom of the tube was manually agitated gently until the solution became cloudy with cells. The 100 μl cell resuspension solution was then stored on the bench at 4° C. (using a Peltier-based temperature control device) until used.
A length of capillary glass (1B150E-4, WPI) was dipped into the cell suspension solution, such that ˜3 cm column of fluid was taken up by capillary action. A Ag/AgCl wire was dropped into the non-dipped end of the capillary also. The outside of the solution-filled end of the capillary was then dried and the capillary was loaded into the AutoPatch™
(§1) Borosilicate glass patch pipettes (from 1.5 mm OD, thin-walled filamented, GC150-TF capillary glass, Harvard) were pulled using a DMZ pipette puller (Zeitz Instruments), and were back-filled using the internal pipette solution, being careful that no bubbles remain at the tip or in the body of the pipette. Patch pipettes typically had resistances of 2.3-3.5 MΩ. Once filled, the pipette tip and a proportion of the shaft (˜15 mm) were dipped into Sigmacote (Sigma). The recording pipette was then loaded into the AutoPatch™. Automated patch-clamping was initiated by the operator, but thereafter AutoPatch.exe continued the experiment providing that pre-set conditions and criteria were satisfied.
Whole cell patch-clamp recordings were made using the AutoPatch™ rig, which incorporated an EPC9 amplifier (HEKA, Germany) under control of Pulse software (v8.54, HEKA, Germany), a motion controller with 2 translators (Newport, UK), valve controller (VF1) and a c-level suction device all at room temperature (22-24° C.). This equipment was completely under the control of AutoPatch.exe and operator intervention was only made when there was a requirement to refill the drug reservoirs or to prevent the loss of a cell due to a technical error. Cells with an Rseries greater than 18 MΩ were discounted from the experiment.
Qualification stages prior to perfusion and drug application ensured that the observed current met the criteria for the experiment. Only those cells with an IK>500 pA were used for experiments. Cells were continuously perfused with external solution at a flow rate of 1.8-2 ml/minute. […] Online analysis of the hKv1.5 current during the application of compounds was performed by the AutoPatch™ software. Voltage-step protocols and analysis of data was performed as described for conventional electrophysiology.
Electrophysiology voltage-step protocols and analysis of data was performed as follows. Data was sampled at 5 kHz, and filtered with a −3 dB bandwidth of 2.5 kHz. Cells were held at a voltage of −80 mV. Currents were evoked to a voltage step for 1000 ms in duration at 0 mV every 5 s. Currents were analysed using Pulsefit software (v8.54, HEKA, Germany), with the total charge measured during the whole of the voltage step. All other plots were produced using Igor Pro (WaveMetrics).

human Kv1.3 = target: T1, human Kv1.3 (Homo sapiens, UniProt P22001); assay: Kv1.3 Autopatch Electrophysiology (whole cell patch-clamp, stably transfected CHO cells); assay type: cell-based; settings: compound 1 μM, step to +30 mV for 500 ms, inhibition of total charge relative to control, room temperature; for inhibition at 1 µM: CHO, read-out: hKv1.3 % inh.
T1 construct: expressed in transfected cells; host or cells: stably transfected cells grown in medium for CHO cells
T1 sequence (P22001 whole entry): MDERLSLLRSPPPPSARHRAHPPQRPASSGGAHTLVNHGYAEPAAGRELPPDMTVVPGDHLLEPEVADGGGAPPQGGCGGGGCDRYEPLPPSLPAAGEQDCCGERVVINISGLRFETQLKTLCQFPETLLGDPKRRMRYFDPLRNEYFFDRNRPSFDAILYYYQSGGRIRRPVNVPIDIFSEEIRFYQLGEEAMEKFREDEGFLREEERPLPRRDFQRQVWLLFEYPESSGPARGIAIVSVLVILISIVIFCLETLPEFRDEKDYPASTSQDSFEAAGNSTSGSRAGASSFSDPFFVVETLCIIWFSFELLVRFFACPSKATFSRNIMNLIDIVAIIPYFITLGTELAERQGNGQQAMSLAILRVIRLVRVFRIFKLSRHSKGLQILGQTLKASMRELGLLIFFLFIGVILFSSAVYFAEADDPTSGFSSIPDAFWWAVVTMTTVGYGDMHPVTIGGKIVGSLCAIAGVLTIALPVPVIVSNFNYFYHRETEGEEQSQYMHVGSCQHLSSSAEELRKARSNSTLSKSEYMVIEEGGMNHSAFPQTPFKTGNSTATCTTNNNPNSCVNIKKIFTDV
Procedure: Cells stably transfected with cDNA for human Kv1.3 (in pcDNA3.1) were grown in Ex-cell 302 serum-free medium for CHO cells, supplemented with 10 μl/ml [100×] glutamine, 500 μg/ml G418 ([…]), and 1% HT supplement (50×, hypoxanthine and thymidine). Compounds were tested on these cells using the AutoPatch technology in whole cell mode.
The external bathing solution contained (in mM): 150 NaCl, 10 KCl, 1 MgCl2, 3 CaCl2, 10 HEPES, pH 7.4 with NaOH. Patch pipettes were filled with an electrode solution of composition (in mM): 100 K-Gluconate, 20 KCl, 1 MgCl2, 1 CaCl2, 10 HEPES, 11 EGTA, 5 ATP-Na2, 2 Glutathione pH 7.2 with KOH.
Compounds were dissolved in DMSO (100%) and made up in the external bather at a concentration of 1 μM immediately prior to use. All experiments were conducted at room temperature.
A cell suspension (10 ml), with a density of 6×10^6 cells, was aliquoted into a 15 ml centrifuge tube and stored at 4° C. before use. Prior to use a tube was taken and centrifuged at 1000 rpm for 4 mins at room temperature. The supernatant was then discarded, leaving a cell pellet at the bottom of the tube. The pellet was then resuspended using 1 ml of cold (4° C.), filtered (0.22 μm), 0.05% BSA/bather solution (0.05 g BSA/100 ml bather). The bottom of the tube was manually agitated followed by gentle tituration. The cell suspension was then placed in the AutoPatch™ temperature controlled cell-hotel at 14° C. and regularly titurated.
as §1, with “A length of Teflon capillary tubing was dipped into the cell suspension solution, and a column of fluid was taken up by negative pressure. The column of fluid was in electrically connectivity with a Ag/AgCl reference electrode. Borosilicate” for “Borosilicate”, “remained” for “remain”, “2.5-3.5” for “2.3-3.5”, “pipettes were placed in a multiwell array and mounted on” for “pipette was then loaded into”, “AutoPatch™ machine.” for “AutoPatch™.”, “patch-clamping and drug-application” for “patch-clamping”
Whole cell patch-clamp recordings were made using the AutoPatch™ rig, which incorporated an EPC9 or EPC10 amplifier (HEKA, Germany) under control of Pulse software (v8.54 or v8.76, HEKA, Germany), a cell applicator, automated drug application system (DAS), valve controller (VF1) and a suction device all at room temperature. This equipment was completely under the control of AutoPatch.exe and operator intervention was only made when there was a requirement to refill the bather reservoirs or to prevent the loss of a cell due to a technical error.
Qualification stages prior to perfusion and drug application ensured that the observed current met the criteria for the experiment. Cells were continuously perfused with external solution at a flow rate of ˜2 ml/minute.
Electrophysiology voltage-step protocols and analysis of data was performed as follows. Data were sampled at 5 kHz, and filtered with a −3 dB bandwidth of 2.5 kHz. Cells were held at a voltage of −80 mV. Currents were evoked by a voltage step to +30 mV for 500 ms in duration applied every 15 s. Online analysis of the hKv1.3 current during the application of compounds was performed by the Pulse (v8.54 or v8.76, HEKA, Germany), Excel (Microsoft, USA) and AutoPatch™ software, with the total charge measured during the whole of voltage step Inhibition of charge movement in the presence of drug was calculated relative to control.

Sequence of hKv1.5 (P22460 whole entry): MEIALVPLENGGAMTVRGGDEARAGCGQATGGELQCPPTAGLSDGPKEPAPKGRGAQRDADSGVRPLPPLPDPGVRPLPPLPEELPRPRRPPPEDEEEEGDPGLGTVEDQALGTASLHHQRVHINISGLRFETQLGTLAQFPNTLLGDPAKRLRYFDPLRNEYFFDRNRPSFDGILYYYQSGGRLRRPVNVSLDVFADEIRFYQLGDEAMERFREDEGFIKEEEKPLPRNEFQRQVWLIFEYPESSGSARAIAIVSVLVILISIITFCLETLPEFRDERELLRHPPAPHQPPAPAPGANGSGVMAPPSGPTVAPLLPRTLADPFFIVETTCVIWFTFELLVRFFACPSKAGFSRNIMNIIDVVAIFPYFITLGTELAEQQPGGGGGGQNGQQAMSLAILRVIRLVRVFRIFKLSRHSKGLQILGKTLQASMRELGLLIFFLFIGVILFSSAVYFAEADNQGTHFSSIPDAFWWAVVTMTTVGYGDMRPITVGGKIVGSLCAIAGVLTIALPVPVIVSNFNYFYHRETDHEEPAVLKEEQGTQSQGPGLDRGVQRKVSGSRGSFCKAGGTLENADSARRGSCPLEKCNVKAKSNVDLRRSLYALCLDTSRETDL

Compound: 1-Methyl-1H-imidazole-4-sulfonic acid (4-chloro-benzyl)-(3-morpholin-4-yl-phenyl)-amide [Example 36]
- hKv1.5 % inh. (hKv1.5): 44%
- hKv1.3 % inh. (human Kv1.3): 83%

Compound: 1-Methyl-1H-pyrazole-3-sulfonic acid (4-chloro-benzyl)-(3-morpholin-4-yl-phenyl)-amide [Example 40]
- hKv1.5 % inh. (hKv1.5): 95%
- hKv1.3 % inh. (human Kv1.3): 99%

Compound: 1-Methyl-1H-pyrazole-3-sulfonic acid (4-chloro-benzyl)-[3-(2-oxo-imidazolidin-1-yl)-phenyl]-amide [Example 42]
- hKv1.5 % inh. (hKv1.5): 77%
- hKv1.3 % inh. (human Kv1.3): 99%

Compound: 1-Methyl-1H-pyrazole-3-sulfonic acid (4-chloro-benzyl)-[3-(2-oxo-pyrrolidin-1-yl)-phenyl]-amide [Example 38]
- hKv1.5 % inh. (hKv1.5): 71%
- hKv1.3 % inh. (human Kv1.3): 96%

Compound: 1-Methyl-1H-pyrazole-3-sulfonic acid benzyl-(3-morpholin-4-yl-phenyl)-amide [Example 41]
- hKv1.5 % inh. (hKv1.5): 33%
- hKv1.3 % inh. (human Kv1.3): 92%

Compound: 4-Methyl-3,4-dihydro-2H-benzo[1,4]oxazine-7-sulfonic acid benzyl-[3-(2-oxo-pyrrolidin-1-yl)-phenyl]-amide [Example 18]
- hKv1.5 % inh. (hKv1.5): 56%
- hKv1.3 % inh. (human Kv1.3): 65%

Compound: O=C1NCCN1c1cccc(N(Cc2ccccc2)S(=O)(=O)c2ccccc2)c1 [Example 1, N-Benzyl-N-[3-(2-oxo-imidazolidin-1-yl)-phenyl]-benzenesulfonamide]
- inhibition at 1 µM (hKv1.5): 66%
- inhibition at 1 µM (human Kv1.3): 86%

Compound: O=S(=O)(c1ccccc1)N(Cc1ccccc1)c1cccc(N2CCOCC2)c1 [Example 2, N-Benzyl-N-(3-morpholin-4-yl-phenyl)-benzenesulfonamide]
- inhibition at 1 µM (hKv1.5): 62%
- inhibition at 1 µM (human Kv1.3): 76%

Compound: Cn1cncc1C(=O)Nc1cccc(N(Cc2ccccc2)S(=O)(=O)c2ccccc2)c1 [Example 3, 3-Methyl-3H-imidazole-4-carboxylic acid [3-(benzenesulfonyl-benzyl-amino)-phenyl]-amide]
- inhibition at 1 µM (hKv1.5): 73%
- inhibition at 1 µM (human Kv1.3): 90%

Compound: O=S(=O)(c1ccccc1)N(Cc1ccccc1)c1cccc(N2CCN(c3ccccc3)CC2)c1 [Example 5, N-Benzyl-N-[3-(4-phenyl-piperazin-1-yl)-phenyl]-benzenesulfonamide]
- inhibition at 1 µM (hKv1.5): 91%
- inhibition at 1 µM (human Kv1.3): 88%

Compound: Cn1ccc(S(=O)(=O)N(Cc2ccc(Cl)cc2)c2cccc(OCc3ccccn3)c2)n1 [Example 6, 1-Methyl-1H-pyrazole-3-sulfonic acid (4-chloro-benzyl)-[3-(pyridin-2-ylmethoxy)-phenyl]-amide]
- inhibition at 1 µM (hKv1.5): 72%
- inhibition at 1 µM (human Kv1.3): 91%

Compound: CNC(=O)COc1cccc(N(Cc2ccc(Cl)cc2)S(=O)(=O)c2ccn(C)n2)c1 [Example 7, 2-{3-[(4-Chloro-benzyl)-(1-methyl-1H-pyrazole-3-sulfonyl)-amino]-phenoxy}-N-methyl-acetamide]
- inhibition at 1 µM (hKv1.5): 93%
- inhibition at 1 µM (human Kv1.3): 99%

Compound: O=C(Cc1ccccc1)Nc1cccc(N(Cc2ccccc2)S(=O)(=O)c2ccccc2)c1 [Example 11, N-[3-(Benzenesulfonyl-benzyl-amino)-phenyl]-2-phenyl-acetamide]
- inhibition at 1 µM (hKv1.5): 77%
- inhibition at 1 µM (human Kv1.3): 86%

Compound: COCC(=O)Nc1cccc(N(Cc2ccccc2)S(=O)(=O)c2ccccc2)c1 [Example 12, N-[3-(Benzenesulfonyl-benzyl-amino)-phenyl]-2-methoxy-acetamide]
- inhibition at 1 µM (hKv1.5): 58%
- inhibition at 1 µM (human Kv1.3): 85%

Compound: O=S(=O)(c1ccccc1)N(Cc1ccccc1)c1cccc(N2CCNC(c3ccccc3)C2)c1 (stereo not shown) [Example 14, N-Benzyl-N-[3-(3-phenyl-piperazin-1-yl)-phenyl]-benzenesulfonamide]
- inhibition at 1 µM (hKv1.5): 77%
- inhibition at 1 µM (human Kv1.3): 94%

Compound: Cc1nc(S(=O)(=O)N(Cc2ccccc2)c2cccc(N3CCOCC3)c2)cn1C [Example 19, 1,2-Dimethyl-1H-imidazole-4-sulfonic acid benzyl-(3-morpholin-4-yl-phenyl)-amide]
- inhibition at 1 µM (hKv1.5): 42%
- inhibition at 1 µM (human Kv1.3): 75%

Compound: Cn1ccc(S(=O)(=O)N(Cc2ccccc2)c2cccc(N3CCNC3=O)c2)n1 [Example 43, 1-Methyl-1H-pyrazole-3-sulfonic acid benzyl-[3-(2-oxo-imidazolidin-1-yl)-phenyl]-amide]
- inhibition at 1 µM (human Kv1.3): 72%

Compound: O=C1NCCN1c1cccc(N(Cc2ccc(Cl)cc2)S(=O)(=O)c2ccccc2)c1 [Example 46, N-(4-Chloro-benzyl)-N-[3-(2-oxo-imidazolidin-1-yl)-phenyl]-benzenesulfonamide]
- inhibition at 1 µM (hKv1.5): 91%
- inhibition at 1 µM (human Kv1.3): 100%

Compound: Cn1ccc(S(=O)(=O)N(Cc2ccc(Cl)cc2)c2cccc(OCC(=O)Nc3ccccn3)c2)n1 [Example 49, 2-{3-[(4-Chloro-benzyl)-(1-methyl-1H-pyrazole-3-sulfonyl)-amino]-phenoxy}-N-pyridin-2-yl-acetamide]
- inhibition at 1 µM (hKv1.5): 99%
- inhibition at 1 µM (human Kv1.3): 95%
